Several values for one entry are separate records, joined by “and”; a condition that tells them apart may be missing. Equal entries are not always repeated. Toxic doses and inconclusive results are not listed. No stated cut-off is given here; in the data, active means T/C of 150% or more; inactive means T/C below 125%.
Test system: L1210 leukemia ip in BDF1 mice, survival T/C
Experiment: NCI In Vivo Anticancer Drug Screen. Data for tumor model L1210 Leukemia (intraperitoneal) in B6D2F1 (BDF1) mice
Details: endpoint: mean survival time, higher = longer survival
Outline: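 Tumor cells were implanted, animals were treated, and survival was followed. The result divides the treated measurement by the vehicle-control measurement.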

[1] = dose: 100.0 mg/kg/injection, schedule: Q01DX001 (ip), vehicle: carboxymethylcellulose (CMC)
[2] = dose: 200.0 mg/kg/injection, schedule: Q01DX001 (ip), vehicle: carboxymethylcellulose (CMC)
[3] = dose: 50.0 mg/kg/injection, schedule: Q01DX001 (ip), vehicle: saline
[4] = dose: 100.0 mg/kg/injection, schedule: Q01DX001 (ip), vehicle: saline
[5] = dose: 200.0 mg/kg/injection, schedule: Q01DX001 (ip), vehicle: saline
[6] = dose: 400.0 mg/kg/injection, schedule: Q01DX001 (ip), vehicle: saline
[7] = dose: 100.0 mg/kg/injection, schedule: Q04DX002 (ip), vehicle: Klucel (hydroxypropylcellulose) (HPC)
[8] = dose: 200.0 mg/kg/injection, schedule: Q04DX002 (ip), vehicle: Klucel (hydroxypropylcellulose) (HPC)
[9] = dose: 400.0 mg/kg/injection, schedule: Q04DX002 (ip), vehicle: Klucel (hydroxypropylcellulose) (HPC)
[10] = dose: 100.0 mg/kg/injection, schedule: Q01DX009 (ip), vehicle: Klucel (hydroxypropylcellulose) (HPC)
[11] = dose: 100.0 mg/kg/injection, schedule: Q04DX003 (ip), vehicle: Klucel (hydroxypropylcellulose) (HPC)
[12] = dose: 200.0 mg/kg/injection, schedule: Q01DX009 (ip), vehicle: Klucel (hydroxypropylcellulose) (HPC)
[13] = dose: 200.0 mg/kg/injection, schedule: Q04DX003 (ip), vehicle: Klucel (hydroxypropylcellulose) (HPC)
[14] = dose: 400.0 mg/kg/injection, schedule: Q01DX009 (ip), vehicle: Klucel (hydroxypropylcellulose) (HPC)
[15] = dose: 400.0 mg/kg/injection, schedule: Q04DX003 (ip), vehicle: Klucel (hydroxypropylcellulose) (HPC)
[16] = dose: 25.0 mg/kg/injection, schedule: Q04DX003 (ip), vehicle: saline with Tween-80
[17] = dose: 50.0 mg/kg/injection, schedule: Q04DX003 (ip), vehicle: saline with Tween-80
[18] = dose: 10.0 mg/kg/injection, schedule: Q01DX001 (ip), vehicle: saline
[19] = dose: 20.0 mg/kg/injection, schedule: Q01DX001 (ip), vehicle: saline
[20] = dose: 40.0 mg/kg/injection, schedule: Q01DX001 (ip), vehicle: saline

Measured: T/C

CCN(CC)CCCC(C)Nc1c2ccc(Cl)cc2nc2ccc(OC)cc12 (centres undefined)
inactive: dose: 7.5 mg/kg/injection, schedule: Q01DX Z (ip), vehicle: saline 93 % of control | dose: 15.0 mg/kg/injection, schedule: Q01DX Z (ip), vehicle: saline 95 % of control | dose: 25.0 mg/kg/injection, schedule: Q01DX015 (ip), vehicle: carboxymethylcellulose (CMC) 102 % of control | dose: 30.0 mg/kg/injection, schedule: Q01DX Z (ip), vehicle: saline 96 % of control | dose: 50.0 mg/kg/injection, schedule: Q01DX015 (ip), vehicle: carboxymethylcellulose (CMC) 102 % of control | dose: 50.0 mg/kg/injection, schedule: Q01DX Z (ip), vehicle: water 104 % of control | [1] 96 % of control | dose: 100.0 mg/kg/injection, schedule: Q01DX015 (ip), vehicle: carboxymethylcellulose (CMC) 102 % of control | [2] 116 % of control

CN(C)c1ccc(/C=C\C=N\NC(=O)CCCC(=O)N/N=C/C=C/c2ccc(N(C)C)cc2)cc1
inactive: [3] 96 % of control | [4] 96 % of control | [5] 96 % of control | [6] 90 % of control

C#CCN1CCC2=C(C1)c1c(O)cc(C(C)C(C)CCCCC)cc1OC2(C)C (centres undefined)
inactive: dose: 100.0 mg/kg/injection, schedule: Q01DX001 (ip), vehicle: Klucel (hydroxypropylcellulose) (HPC) 95 % of control | dose: 200.0 mg/kg/injection, schedule: Q01DX001 (ip), vehicle: Klucel (hydroxypropylcellulose) (HPC) 92 % of control | dose: 400.0 mg/kg/injection, schedule: Q01DX001 (ip), vehicle: Klucel (hydroxypropylcellulose) (HPC) 103 % of control

Cn1c(=O)c2c(nc(OC3CCCC3)n2C)n(C)c1=O
inactive: dose: 50.0 mg/kg/injection, schedule: Q01DX001 (ip), vehicle: other 98 % of control | dose: 100.0 mg/kg/injection, schedule: Q01DX001 (ip), vehicle: other 98 % of control | dose: 200.0 mg/kg/injection, schedule: Q01DX001 (ip), vehicle: other 87 % of control

COc1ccc(NC(=O)Nc2cccc(C(=O)O)c2)c(OC)c1
inactive: [7] 101 % of control | [8] 104 % of control | [9] 97 % of control

O=[N+]([O-])c1ccccc1N=Nc1c(O)[nH]c2c(Cl)cccc12
inactive: [4] 97 % of control | [5] 100 % of control | [6] 97 % of control

CCCCCCCCCCCCCCCCOc1c(Cl)cc(Cl)cc1Cl
inactive: [7] 102 % of control | [8] 98 % of control | [9] 102 % of control

COC(=O)c1cc(C)c(Br)c(N)c1
inactive: [10] 101 % of control | [11] 100 % of control | [12] 101 % of control | [13] 92 % of control | [14] 98 % of control | [15] 95 % of control

C/C(=N\[N+](C)(C)C)c1ccc(C)cc1
inactive: dose: 12.5 mg/kg/injection, schedule: Q01DX001 (ip), vehicle: saline 112 % of control | dose: 25.0 mg/kg/injection, schedule: Q01DX001 (ip), vehicle: saline 104 % of control | dose: 25.0 mg/kg/injection, schedule: Q04DX003 (ip), vehicle: saline 107 % of control | [3] 108 % of control | dose: 50.0 mg/kg/injection, schedule: Q04DX003 (ip), vehicle: saline 100 % of control | [4] 101 % of control | dose: 100.0 mg/kg/injection, schedule: Q04DX003 (ip), vehicle: saline 105 % of control

Cc1ccccc1C(=O)C(C#N)c1ccccc1 (centres undefined)
inactive: dose: 25.0 mg/kg/injection, schedule: Q01DX009 (ip), vehicle: saline with Tween-80 103 % of control and 92 % of control | [16] 98 % of control | dose: 50.0 mg/kg/injection, schedule: Q01DX001 (ip), vehicle: saline with Tween-80 95 % of control | dose: 50.0 mg/kg/injection, schedule: Q01DX009 (ip), vehicle: saline with Tween-80 96 % of control and 103 % of control | dose: 50.0 mg/kg/injection, schedule: Q04DX002 (ip), vehicle: saline with Tween-80 97 % of control | [17] 102 % of control | dose: 100.0 mg/kg/injection, schedule: Q01DX001 (ip), vehicle: saline with Tween-80 90 % of control | dose: 100.0 mg/kg/injection, schedule: Q01DX009 (ip), vehicle: saline with Tween-80 113 % of control and 118 % of control | dose: 100.0 mg/kg/injection, schedule: Q04DX002 (ip), vehicle: saline with Tween-80 93 % of control and 111 % of control and 88 % of control | dose: 200.0 mg/kg/injection, schedule: Q04DX002 (ip), vehicle: saline with Tween-80 90 % of control

CCOC(=O)NC(C)c1cccc2ccccc12 (centres undefined)
inactive: [11] 93 % of control | [13] 97 % of control | [15] 90 % of control

COc1ccc(C=Nc2cc([N+](=O)[O-])ccc2O)cc1
inactive: [1] 98 % of control | [2] 98 % of control | dose: 400.0 mg/kg/injection, schedule: Q01DX001 (ip), vehicle: carboxymethylcellulose (CMC) 94 % of control

CCCCCCCCCCCCCCCCOc1ccc(C(=O)CC(=O)OC)cc1
inactive: [10] 93 % of control | dose: 100.0 mg/kg/injection, schedule: Q04DX003 (ip), vehicle: other 94 % of control | [12] 92 % of control | dose: 200.0 mg/kg/injection, schedule: Q04DX003 (ip), vehicle: other 101 % of control | [14] 92 % of control | dose: 400.0 mg/kg/injection, schedule: Q04DX003 (ip), vehicle: other 94 % of control

CCOC(=O)CN1N=C([P+](c2ccccc2)(c2ccccc2)c2ccccc2)CC1(c1ccccc1)c1ccccc1
inactive: [18] 95 % of control | [19] 96 % of control | [20] 86 % of control

CC(=O)[O][Hg][c]1c(C)c(C)c(C)c(C)c1C
inactive: dose: 12.5 mg/kg/injection, schedule: Q04DX003 (ip), vehicle: saline with Tween-80 87 % of control | [16] 87 % of control | [17] 87 % of control

CCCCCCCCCCCCCCCCCC[n+]1cccc(C#N)c1
inactive: dose: 5.0 mg/kg/injection, schedule: Q01DX009 (ip), vehicle: saline 98 % of control | [18] 93 % of control | dose: 10.0 mg/kg/injection, schedule: Q01DX009 (ip), vehicle: saline 92 % of control | dose: 10.0 mg/kg/injection, schedule: Q04DX003 (ip), vehicle: saline 105 % of control | [19] 91 % of control | dose: 20.0 mg/kg/injection, schedule: Q04DX003 (ip), vehicle: saline 97 % of control | [20] 91 % of control | dose: 40.0 mg/kg/injection, schedule: Q04DX003 (ip), vehicle: saline 114 % of control

Nc1nc(N)c(-c2ccccc2)c(C=O)n1
inactive: dose: 100.0 mg/kg/injection, schedule: Q04DX003 (ip), vehicle: saline with Tween-80 110 % of control | dose: 200.0 mg/kg/injection, schedule: Q04DX003 (ip), vehicle: saline with Tween-80 117 % of control | dose: 400.0 mg/kg/injection, schedule: Q04DX003 (ip), vehicle: saline with Tween-80 110 % of control

COc1ccc(CC(=O)C2C(=O)N(C)c3ccccc32)cc1OC (centres undefined)
inactive: [3] 104 % of control | [4] 102 % of control | [5] 96 % of control | [6] 98 % of control

— PubChem BioAssay AID248 (DTP/NCI, 2004)
